The values below come from US8933070B2, “Methods of targeting PTEN mutant diseases and compositions therefor” (University Health Network, priority 2010, dated 2015).

Assay [1] has as its system HCT116 p53^−/− colon cancer cell line. The experiment in a line: Cell growth inhibition, SRB assay, extended panel. Conditions: Homo sapiens, HCT-116, read-out: GI50 Range HCT116 p53^−/−. In kind it is cell-based. On the procedure: (§1) Breast cancer cells (MCF-7, MDA-MB-468 and HCC1954), colon cancer cells (SW620) and lung cancer cells (A549), together with human mammary epithelial primary cells (HMEC) were seeded (1000 to 4000 per 80 μl per well depending on the cell growth rate) into 96-well plates 24 hours before compound overlay. Compounds were prepared as 10 mM stock solutions in 100% DMSO which were diluted with DMEM (Dulbecco's Modified Eagle's Medium) cell growth Medium (Invitrogen, Canada) containing 10% FBS (Fetal Bovine Serum) to concentrations ranging from 50 nM to 250 μM. Aliquots (20 μl) from each concentration were overlaid to 80 μl of the pre-seeded cells in the 96-plates to make final concentrations of 10 nM to 50 μM. The cells were cultured for 5 days before the Sulforhodamine B (SRB) assay was performed to determine the compound's cell growth inhibition activity.
(§2) Sulforhodamine B (Sigma, Canada) is a water-soluble dye that binds to the basic amino acids of cellular proteins. Thus, colorimetric measurement of the bound dye provides an estimate of the total protein mass that is related to the cell number. The cells are fixed in situ by gently aspirating off the culture media and adding 50 μl ice cold 10% Trichloroacetic Acid (TCA) per well and incubated at 4° C. for 30-60 min. The plates are washed with water five times and allowed to air dry for 5 min. Addition of 50 μl 0.4% (w/v) SRB solution in 1% (v/v) acetic acid to each well and incubatation for […] at RT completes the staining reaction. Following staining, plates are washed four times with 1% acetic acid to remove unbound dye and then allowed to air dry for 5 min. The stain is solubilized with 100 μl of 10 mM Tris pH 10.5 per well. Absorbance is read at 570 nm.
(§3) The percentage (%) of relative growth inhibition was calculated by comparing to DMSO-treated only cells (100%). GI50's were determined for compounds with cytotoxic activity. The GI50 was calculated using GraphPad PRISM software (GraphPad Software, Inc., USA).
(§4) In addition to the cell lines tested as described above, selected compounds have been assayed against an extended panel. These include: breast cancer cell lines (T-47D, MDA-MB-231, Hs578T, 8T-474, SKBr-3 and HCC1954), a lung cancer cell line (H358), brain cancer cell lines (A172, Hs683 and SK-N-SH), colon cancer cell lines (Colo 205, HCT-15, HCT116 p53^+/+ and HCT116 p53^−/−), ovarian cancer cell lines (OVCAR-3, SK-OV-3 and SW626), a melanoma cell line (518A2), a prostate cancer cell line (PC-3) and an immortalized breast cell line (184A1). The SRB assay described above was used to assay test compounds against the extended panel (Table 6).

Assay [2] has as its system HCT116 p53^+/+ colon cancer cell line. As to the kind of experiment: Cell growth inhibition, SRB assay, extended panel. The class given is cell-based. Conditions: Homo sapiens, HCT-116, read-out: GI50 Range HCT116 p53^+/+. On the procedure:
as §1, §2, §3, §4
A general note: The SRB assay estimates cell density from bound dye.

In a further assay the target is T1, PLK2 (Homo sapiens, UniProt Q9NYY3).
T1 construct: purchased Invitrogen PV4204
T1 sequence (Q9NYY3 whole entry): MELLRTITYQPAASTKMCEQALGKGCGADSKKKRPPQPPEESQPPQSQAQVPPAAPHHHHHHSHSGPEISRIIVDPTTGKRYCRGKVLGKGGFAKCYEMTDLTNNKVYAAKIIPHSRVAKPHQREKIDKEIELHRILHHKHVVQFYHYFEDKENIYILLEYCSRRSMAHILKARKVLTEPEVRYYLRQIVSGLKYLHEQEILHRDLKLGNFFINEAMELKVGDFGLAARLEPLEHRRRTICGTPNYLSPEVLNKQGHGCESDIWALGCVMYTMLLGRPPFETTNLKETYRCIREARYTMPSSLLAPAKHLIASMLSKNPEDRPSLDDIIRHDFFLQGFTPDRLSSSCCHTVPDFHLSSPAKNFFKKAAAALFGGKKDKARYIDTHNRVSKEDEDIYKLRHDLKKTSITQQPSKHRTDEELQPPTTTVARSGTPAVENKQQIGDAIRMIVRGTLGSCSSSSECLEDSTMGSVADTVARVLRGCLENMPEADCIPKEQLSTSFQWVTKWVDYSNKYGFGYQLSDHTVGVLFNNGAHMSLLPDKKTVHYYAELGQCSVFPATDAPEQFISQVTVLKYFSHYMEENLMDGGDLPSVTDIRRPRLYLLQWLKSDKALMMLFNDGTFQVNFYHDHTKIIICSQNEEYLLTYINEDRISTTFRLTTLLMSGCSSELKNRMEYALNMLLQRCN
The experiment in a line: PLK2 inhibition assay (Z-Lyte). In kind it is biochemical. The note with it: dose of 10 μM; read-out: PLK2 relative inhibition percentage. On the procedure: PLK2 inhibition was determined using the Z-Lyte assay kit from Invitrogen (cat# PV3802). The assay was performed using the recommended manufacturer's instructions with 60 μM ATP and 133 nM PLK2 (Invitrogen cat #PV4204). The % inhibition values were determined according to the manufacturer's directions and IC50 values were obtained using a non-linear 4 point logistic curve fit (XLfit4, IDBS)

The next assay has as its target T2, PLK1 (Homo sapiens, UniProt P53350).
T2 construct: purchased Invitrogen PV3501
As to the kind of experiment: PLK1 inhibition assay (Z-Lyte). The class given is biochemical. Conditions: dose of 10 μM; read-out: PLK1 relative inhibition percentage.

T2 sequence (P53350 whole entry): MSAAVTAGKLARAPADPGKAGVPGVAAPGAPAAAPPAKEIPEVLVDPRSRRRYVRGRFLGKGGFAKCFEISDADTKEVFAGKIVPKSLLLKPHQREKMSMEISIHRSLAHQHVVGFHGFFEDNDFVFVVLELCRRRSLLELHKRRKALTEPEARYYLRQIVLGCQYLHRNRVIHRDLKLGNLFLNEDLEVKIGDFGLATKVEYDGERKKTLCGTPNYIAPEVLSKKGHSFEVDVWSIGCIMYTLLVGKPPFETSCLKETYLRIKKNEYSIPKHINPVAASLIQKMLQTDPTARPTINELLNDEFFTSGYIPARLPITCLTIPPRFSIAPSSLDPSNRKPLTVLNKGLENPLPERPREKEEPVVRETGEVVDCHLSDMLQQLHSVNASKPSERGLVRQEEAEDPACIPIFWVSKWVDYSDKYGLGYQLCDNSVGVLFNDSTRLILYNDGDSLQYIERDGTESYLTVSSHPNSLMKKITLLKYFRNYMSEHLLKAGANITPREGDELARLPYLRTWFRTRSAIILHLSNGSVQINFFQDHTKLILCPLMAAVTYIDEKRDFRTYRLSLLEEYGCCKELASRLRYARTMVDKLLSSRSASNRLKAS
Protocol for PLK1: PLK1 inhibition was determined using the Z-Lyte assay kit from Invitrogen (cat#PV3802). The assay was performed using the recommended manufacturer's instructions with 25 μM ATP and 8 nM PLK1 (Invitrogen cat #PV3501). The % inhibition values were determined according to the manufacturer's directions and IC50 values were obtained using a non-linear 4 point logistic curve fit (XLfit4, IDBS)

By inhibition is commonly meant the share of the control response that was lost under treatment. Take `CN1CCN(c2ccc(/C=C/c3n[nH]c4cc(C=C5C(=O)Nc6ccccc65)ccc34)cn2)CC1` [Compound 32]: the GI50 in assay [1] and in assay [2] was under 5 µM each time. For the same compound, the inhibition at 10 µM at PLK2 and on PLK1 was under 50% each time.
